For one series, the system named is HLA alleles. To be noted: cited from earlier work.
The next series deals with IMEA cells. The series can be described thus: In vitro killing of IMEA HCC cells, with or without BALB/c splenocytes. The conditions noted are these: for enhanced killing of IMEA HCC: in vitro screening with T cells. Details: IMEA cell killing: unit of the concentration uncertain. The series is classed as cell-based, mouse. The protocol:
Prior to validation in human systems, a mouse system targeting hepatocellular carcinoma (HCC), the most common form of liver cancer, was used. IMEA is a murine HCC line of the H2^d haplotype, expressing the H2-D^d, H2-K^d, and H2-L^d allelic variants.
(§1) In a first set of experiments, drugs (e.g., small molecules) that bind IMEA MHC were selected from a database compiled using the in silico modeling and scoring methodology disclosed herein, and were tested for T cell stimulation and HCC killing in vitro. The crystal structure of H2-D^d was used as the basis for in silico selection of FDA-approved drugs predicted to bind the antigen binding cleft. DOCK6, a structure-based design program for early drug discovery (available for download at http://dock.compbio.ucsf.edu/) was used to screen 1,207 FDA approved small molecule drugs by parallel processing at the University of Florida High Performance Computing Center. An initial 1,207 FDA approved compounds were selected based upon their predicted ability to bind the HLA-A2 supertype, and thus their predicted efficacy across a wide swath of individuals. The top 40 scoring compounds were obtained from the National Cancer Institute Developmental Therapeutics Program.
IMEA cells were seeded in 24-well plates. At 30% confluence of IMEA cells, 0.5×10^6 of BALB/c mouse splenocytes were added to half of the wells. The compounds under evaluation were incubated with IMEA cells in concentrations […] and 1 mM, and supernatant was subsequently collected.

Series [1] has as its system PBMCs from an HLA-A2 expressing individual (UF 86). The series can be described thus: Ex vivo T cell stimulation assay, flow cytometry, HLA-A2 expressing PBMCs. Type of series: cell-based, human. The conditions noted are these: for autologous mixed lymphocyte reaction: HLA-A2 expressing cells, FIG. 5. The protocol:
Third, top scoring compounds were tested for their ability to modulate proliferation of peripheral blood mononuclear cells (PBMCs) from healthy individuals using ex vivo T cell stimulation assays. Here, the drugs predicted to bind HLA-A2 (FIGS. 4A-4I) were tested using PBMCs from HLA-typed normal individuals. In assays, drugs were incubated with PBMCs (for up to 14 days), and functional characteristics of the responding T cell population were assayed utilizing flow cytometry (e.g., using antibodies specific for CD3 and CD8). PBMCs were stimulated with drugs at […] per ml with interleukin-2 (IL-2) supplemented on day 2. […] PBMCs from an HLA-A2 expressing individual (“UF 86” is homozygous for HLA-A*02:01) were incubated with a panel of drugs predicted to bind HLA-A2 by molecular docking. PBMCs from an individual lacking HLA-A2 (“UF 85”) served as a control for HLA allele specificity. Cells were stained with antibodies specific for CD3, CD8 (cytotoxic T lymphocyte markers), CD69, and CD107a (LAMP-1) (activation markers) to identify those drugs from the top scoring grouping that modify cytotoxic T lymphocyte activity.
(In general: A flow cytometer gives signals particle by particle.)

A further series concerns H2-D^d T cells. The series can be described thus: In vitro T cell stimulation in the mouse HCC system. Type of series: cell-based. As to the method:
as §1
IMEA cells were seeded in 24-well plates. At 30% confluence of IMEA cells, 0.5×10^6 of BALB/c mouse splenocytes were added to half of the wells. The compounds under evaluation were incubated with IMEA cells in concentrations of 10 mM and 1 mM, and supernatant was subsequently collected.

The target in the next series is HLA-B*57:01 (Homo sapiens, UniProt P01889, D201E/D98Y/E176V/E187L/E204Q/E69M/E70A/G107R/I90N/K202T/L105A/L119I/N104I/N87E/Q89R/Q94S/R106L/R155S/R180L/R86G/S101N/S121V/S35A/S48A/T118I/V36M/Y140S/Y91M). The conditions noted are these: cited from earlier work.
For series [2] the following is noted: cited from earlier work.
Series [3] has as its system peripheral blood mononuclear cells from hypersensitive HLA-B*57.01+ patients. The conditions noted are these: cultured with abacavir in vitro; cited from earlier work.

“Also recorded” adds a separate entry of the source.

As to `NNc1nncc2ccccc12` [Hydralazine], the “HLA allele association(s) with adverse drug reaction” value (“HLA allele association(s)” for short) with HLA alleles is on record as “DR4”. With `NC(=O)c1ncn([C@@H]2O[C@H](CO)[C@@H](O)[C@H]2O)n1` [compound 163039], in the series on IMEA cells (10 (unit uncertain)), the IMEA cell killing entry is “killed”. Regarding `O=C(O)CNC(=O)C(Cl)Cl` [drug 3], the “autologous mixed lymphocyte reaction” value in series [1] is “inhibit”. Take `O=CC(Br)=C(Br)C(=O)O` [drug 11, 2,3-dibromo-4-oxobut-2-enoic acid]: the “number of activated CD8+ cells” value in series [1] (day 4, FIG. 5) was “enhances”.

On to `Nc1ncn([C@@H]2O[C@H](CO)[C@@H](O)[C@H]2O)c(=O)n1` [vidaza], for which, in the series with IMEA cells, the “enhanced killing of IMEA HCC” value is “enhanced killing”. For the same compound, the “stimulation of H2-D^d T cells” value in the series with H2-D^d T cells is listed as “stimulated”. In the same order, the values of `N[C@@H](Cc1ccc(N(CCCl)CCCl)cc1)C(=O)O` [melphalan] are “enhanced killing” and “stimulated”. Turning to `Cc1cc(NS(=O)(=O)c2ccc(N)cc2)no1` [Sulfamethoxazole], in the series on HLA alleles, the “HLA allele association(s)” value is reported as “A30; B13; Cw6”.

For `Nc1nc(NC2CC2)c2ncn([C@H]3C=C[C@@H](CO)C3)c2n1` [Abacavir], on HLA-B*57:01 (by binding HLA-B*57:01), the “CD8+ T cell activity” value was “enhances”. At HLA-B*57:01 (drug naïve individuals that carry the HLA-B*57:01 allele), the “polyclonal T cell responses” value is listed as “stimulates”. Also, the “risk of a hypersensitivity reaction” value in series [2] (HLA-B*57:01 patient) is about 50%. Moreover, the “overall incidence rate of hypersensitivity” value in series [2] (no genetic prescreening, HLA-B*57:01+ and HLA-B*57:01- individuals) is reported as about 6%. In series [3], the “immune response of PBMCs (interferon-γ, tumor necrosis factor-α, other inflammatory cytokines)” value is “detectable immune response”. Turning to `CC(=O)Oc1ccccc1C(=O)O` [Aspirin], in the series with HLA alleles, the “HLA allele association(s)” value is “DPB1*03:01; also recorded: DRB1*13:02-DQB1*06:09”.

Turning to `N[C@@H](Cc1ccc(N(CCCl)CCCl)cc1)C(=O)O` [compound 241286], the IMEA cell killing entry with IMEA cells (10 (unit uncertain)) was “killed”. In the case of `CCOC(=O)CN[C@@H](C(=O)N1CC[C@H]1C(=O)NCc1ccc(/C(N)=N\O)cc1)C1CCCCC1` [Ximelagatran], in the series with HLA alleles, the “HLA allele association(s)” value is on record as “DRB1*07, DQA1*02; also recorded: DQB1*07:01”. As for `NC(=O)c1ncn([C@@H]2O[C@H](CO)[C@@H](O)[C@H]2O)n1` [ribavirin], the “enhanced killing of IMEA HCC” value in the series on IMEA cells was “enhanced killing”. Moreover, the “stimulation of H2-D^d T cells” value with H2-D^d T cells is “stimulated”. For the compound `CC(C)(S)[C@@H](N)C(=O)O` [d-penicillamine], the “HLA allele association(s)” value with HLA alleles is “B8, DR3, DR1”. In the case of Asparaginase, the “HLA allele association(s)” value with HLA alleles is recorded as “DRB1*07:01”. With `Cl.Nc1ccn([C@@H]2O[C@H](CO)[C@@H](O)[C@@H]2O)c(=O)n1` [compound 63878], the IMEA cell killing entry with IMEA cells (1 (unit uncertain)) and in the series with IMEA cells (10 (unit uncertain)) was “killed” throughout. As to `O=C(O)c1ccc(I)cc1O` [drug 10], in series [1], the “autologous mixed lymphocyte reaction” value is given as “inhibit”. Turning to `Nc1ncn([C@@H]2O[C@H](CO)[C@@H](O)[C@H]2O)c(=O)n1` [compound 102816], the IMEA cell killing entry in the series on IMEA cells (10 (unit uncertain)) is “killed”. For the compound `CN1CCN(C2=Nc3cc(Cl)ccc3Nc3ccccc32)CC1` [Clozapine], the “HLA allele association(s)” value in the series on HLA alleles is “B38, DR4, DR2”. Take `CC1(C)S[C@@H]2[C@H](NC(=O)[C@H](N)c3ccccc3)C(=O)N2[C@H]1C(=O)O` [Aminopenicillins]: the “HLA allele association(s)” value with HLA alleles is on record as “A2, DRw52”.

The values are drawn from patent publication US20230092232A1, “COMPOUNDS THAT MODULATE ANTI-TUMOR IMMUNITY AND METHODS OF DOING THE SAME” (University of Florida Research Foundation, Incorporated, priority 2020, published 2023).
